Results reported in patent US20210251991A1, “SUBSTITUTED 2,2'-BIPYRIMIDINYL COMPOUNDS, ANALOGUES THEREOF, AND METHODS USING SAME” (priority 2018, published 2021).

Tested on: HBsAg in HepG2.2.15 cells
Experiment: HBsAg assay: inhibition of HBsAg in HepG2.2.15 cells (chemiluminescence immunoassay of supernatant)
Format: cell-based, hepatitis B virus
Conditions: Hepatitis B virus, HepG2.2.15, 144 h, read-out: sAg EC50, HepG2.2.15 cells, supernatant collected at day 6 after exposure, HBsAg CLIA
Experimental: Inhibition of HBsAg was determined in HepG2.2.15 cells. Cells were maintained in culture medium containing 10% fetal calf serum, […], Glutamine, penicillin/streptomycin. Cells were seeded in 96-well collagen-coated plate at a density of 30,000 cells/well. Serially diluted compounds were added to cells next day at the final DMSO concentration of 0.5%. Cells were incubated with compounds for 2-3 days, after which medium was removed. Fresh medium containing compounds was added to cells for additional 3-4 days. At day 6 after exposure of compounds, supernatant was collected, the HBsAg immunoassay (microplate-based chemiluminescence immunoassay kits, CLIA, Autobio Diagnosics Co., Zhengzhou, China, Catalog #CL0310-2) was used to determine the level of HBsAg according to manufactory instruction. Dose-response curves were generated and the EC50 value (effective concentrations that achieved 50% inhibitory effect) were determined using XLfit software. In addition, cells were seeded at a density of 5,000 cells/well for determination of cell viability in the presence and absence of compounds by using CellTiter-Glo reagent (Promega).

| SMILES | EC50 |
| --- | --- |
| Fc1ccc2c(c1F)CCN(c1cnc(-c3ncccn3)nc1)C2 [Example 3, 2-([2,2′-Bipyrimidin]-5-yl)-5,6-difluoro-1,2,3,4-tetrahydroisoquinoline] | 3.4 µM |
| Fc1ccc2c(c1F)CCN(c1ccnc(-c3ncccn3)n1)C2 [Example 4, 2-([2,2′-Bipyrimidin]-4-yl)-5,6-difluoro-1,2,3,4-tetrahydroisoquinoline] | 0.9 µM |
| CC1CN(c2cnc(-c3ncccn3)nc2)Cc2ccccc21 (stereo not shown) [Example 5, 2-([2,2′-Bipyrimidin]-5-yl)-4-methyl-1,2,3,4-tetrahydroisoquinoline] | 34 µM |
| CC1c2ccccc2CCN1c1cnc(-c2ncccn2)nc1 (stereo not shown) [Example 6, 1-Methyl-2-(2-pyrimidin-2-ylpyrimidin-5-yl)-3,4-dihydro-1H-isoquinoline] | 1.4 µM |
| CC1c2ccccc2CCN1c1ccnc(-c2ncccn2)n1 (stereo not shown) [Example 7, 2-([2,2′-Bipyrimidin]-4-yl)-1-methyl-1,2,3,4-tetrahydroisoquinoline] | 1.9 µM |
| CCC1Cc2ccccc2CN1c1ccnc(-c2ncccn2)n1 (stereo not shown) [Example 8, 2-([2,2′-Bipyrimidin]-4-yl)-3-ethyl-1,2,3,4-tetrahydroisoquinoline] | 2.3 µM |
| c1cnc(-c2nccc(N3CCc4ccccc4C3)n2)nc1 [Example 9, 2-([2,2′-Bipyrimidin]-4-yl)-1,2,3,4-tetrahydroisoquinoline] | 8.5 µM |
| CCC1c2ccccc2CCN1c1cnc(-c2ncccn2)nc1 (stereo not shown) [Example 10, 2-([2,2′-Bipyrimidin]-5-yl)-1-ethyl-1,2,3,4-tetrahydroisoquinoline] | 0.25 µM |
| CCC1c2ccccc2CCN1c1ccnc(-c2ncccn2)n1 (stereo not shown) [Example 13, 2-([2,2′-Bipyrimidin]-4-yl)-1-ethyl-1,2,3,4-tetrahydroisoquinoline] | 0.5 µM |
| FC(F)(F)c1cccc2c1CN(c1cnc(-c3ncccn3)nc1)C2 [Example 14, 2-([2,2′-Bipyrimidin]-5-yl)-4-(trifluoromethyl)isoindoline] | 25 µM |
| CC1CN(c2ccnc(-c3ncccn3)n2)Cc2ccccc21 (stereo not shown) [Example 15, 2-([2,2′-Bipyrimidin]-4-yl)-4-methyl-1,2,3,4-tetrahydroisoquinoline] | 1.1 µM |
| CC1CN(c2cnc(-c3ncccn3)nc2)C(=O)c2ccccc21 (stereo not shown) [Example 16, 2-([2,2′-Bipyrimidin]-5 yl)-4-methyl-3,4-dihydroisoquinolin-1(2H)-one] | 9.1 µM |
| Fc1cc2c(cc1F)CN(c1ccnc(-c3ncccn3)n1)CC2 [Example 17, 2-([2,2′-Bipyrimidin]-4-yl)-6,7-difluoro-1,2,3,4-tetrahydroisoquinoline] | 0.61 µM |
| COc1cc2c(cc1OC)C1(CCC1)N(c1cnc(-c3ncccn3)nc1)CC2 [Example 18, 2′-([2,2′-Bipyrimidin]-5-yl)-6′,7′-dimethoxy-3′,4′-dihydro-2′H-spiro[cyclobutane-1,1′-isoquinoline]] | 50 µM |
| CCC1c2ccccc2CN1c1cnc(-c2ncccn2)nc1 (stereo not shown) [Example 19, 2-([2,2′-Bipyrimidin]-5-yl)-1-ethylisoindoline] | 0.8 µM |
| c1cnc(-c2ncc(N3CC4CCC3c3ccccc34)cn2)nc1 (stereo not shown) [Example 20, 10-([2,2′-Bipyrimidin]-5-yl)-1,2,3,4-tetrahydro-1,4-(epiminomethano) naphthalene] | 32 µM |
| c1cnc(-c2ncc(N3CC4CC3c3ccccc34)cn2)nc1 (stereo not shown) [Example 21, 2-([2,2′-Bipyrimidin]-5-yl)-1,2,3,4-tetrahydro-1,4-methanoisoquinoline] | 27 µM |
| c1cnc(-c2ncc(N3C4CCC3c3ccccc34)cn2)nc1 [Example 22, 9-([2,2′-Bipyrimidin]-5-yl)-1,2,3,4-tetrahydro-1,4-epiminonaphthalene] | 21 µM |
| CCCC1c2ccccc2CCN1c1ccnc(-c2ncccn2)n1 (stereo not shown) [Example 23, 2-([2,2′-Bipyrimidin]-4-yl)-1-propyl-1,2,3,4-tetrahydroisoquinoline] | 1 µM |
